In ChEMBL document CHEMBL4321804, “Myrmenaphthol A, Isolated from a Hawaiian Sponge of the Genus Myrmekioderma” (J Nat Prod, 2019):
Values after ≈ are worked out from the molar mass of the structure shown. Active and inactive are the calls of the source. No cut-off for these calls is given here.

Experiments:
[1] = molecular target: T1, Estrogen receptor (Homo sapiens) (UniProt P03372); test: Antagonist activity at 17-beta-estradiol-stimulated GST-tagged ER-alpha ligand binding domain (unknown origin) assessed as fluorescein PGC1a coactivator peptide recruitment incubated up to 24 hrs by LanthaScreen TR-FRET co-regulator assay
T1 sequence (whole entry): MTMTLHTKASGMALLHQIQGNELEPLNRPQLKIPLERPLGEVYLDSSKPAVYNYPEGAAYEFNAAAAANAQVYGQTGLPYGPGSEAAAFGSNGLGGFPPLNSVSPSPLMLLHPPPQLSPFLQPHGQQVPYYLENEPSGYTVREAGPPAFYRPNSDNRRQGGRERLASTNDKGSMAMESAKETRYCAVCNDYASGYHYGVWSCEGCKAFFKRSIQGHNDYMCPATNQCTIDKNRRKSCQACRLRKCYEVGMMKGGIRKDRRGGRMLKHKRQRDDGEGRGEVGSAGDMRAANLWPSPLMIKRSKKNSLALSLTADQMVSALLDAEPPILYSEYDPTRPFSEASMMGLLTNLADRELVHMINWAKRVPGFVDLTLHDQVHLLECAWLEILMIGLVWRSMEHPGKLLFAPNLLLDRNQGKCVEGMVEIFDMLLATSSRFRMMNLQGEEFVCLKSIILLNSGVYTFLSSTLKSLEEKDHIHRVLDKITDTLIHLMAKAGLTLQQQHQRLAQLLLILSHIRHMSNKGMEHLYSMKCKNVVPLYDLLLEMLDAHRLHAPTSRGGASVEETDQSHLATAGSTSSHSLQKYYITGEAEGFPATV

[2] = molecular target: T1, Estrogen receptor (Homo sapiens); test: Agonist activity at GST-tagged ER-alpha ligand binding domain (unknown origin) assessed as fluorescein PGC1a coactivator peptide recruitment incubated up to 24 hrs by LanthaScreen TR-FRET co-regulator assay
[3] = molecular target: T1, Estrogen receptor (Homo sapiens); test: Inhibition of 17-beta-estradiol-stimulated human ER alpha-binding domain at 100 uM by LanthaScreen TR-FRET coregulator assay
[4] = system: HeLa; test: Cytotoxicity against human HeLa cells incubated for 72 hrs by MTT assay; format: functional, cell-based
[5] = system: P388; test: Cytotoxicity against mouse P388 cells incubated for 72 hrs by MTT assay; format: functional, cell-based; details: P388, 72 h
[6] = molecular target: T2, Estrogen receptor (Homo sapiens, UniProt P03372); test: Displacement of [3H]-estradiol from human recombinant estrogen receptor expressed in insect cells incubated for 17 hrs by radioactive receptor binding assay
T2 sequence (P03372 whole entry): T1 sequence (whole entry)

Row | Compound | inhibition [1] | Activity [2] | inhibition [3] [%] | IC50 [4] [µg/mL] | IC50 [5] [µg/mL] | IC50 [6] [nM]
1 | C/C=C1/C(=O)C(O)=C2c3ccc4ccc(O)cc4c3CC[C@@]21C | inactive | inactive | 30 |  |  | 
2 | C[C@@H]1C[C@@]12c1ccc3c(ccc4ccc(O)cc43)c1C[C@@H]2O | inactive | inactive | 30 | 0.4 (≈ 1.38 µM) | 4.5 (≈ 15.5 µM) | 10
